# Measurements published in PubChem BioAssay (NCI).
#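 Assay format: 96-well plates, 48-hour exposure. GI50 is the concentration that inhibits growth by half. The concentration for full growth arrest is given as TGI.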
# What was measured:
# Test in all cases: inhibition of tumour cell growth, NCI panel, 48 h
# 786-0 renal = tested on: 786-0 renal
# A498 renal = tested on: A498 renal
# A549 NSCLC = tested on: A549 NSCLC
# ACHN renal = tested on: ACHN renal
# CAKI-1 renal = tested on: CAKI-1 renal
# CCRF-CEM leukemia = tested on: CCRF-CEM leukemia
# COLO 205 colon = tested on: COLO 205 colon
# DU-145 prostate = tested on: DU-145 prostate
# EKVX NSCLC = tested on: EKVX NSCLC
# HCC-2998 colon = tested on: HCC-2998 colon
# HCT-116 colon = tested on: HCT-116 colon
# HCT-15 colon = tested on: HCT-15 colon
# HL-60(TB) leukemia = tested on: HL-60(TB) leukemia
# HOP-62 NSCLC = tested on: HOP-62 NSCLC
# HOP-92 NSCLC = tested on: HOP-92 NSCLC
# HS 578T breast = tested on: HS 578T breast
# HT29 colon = tested on: HT29 colon
# IGROV1 ovarian = tested on: IGROV1 ovarian
# K-562 leukemia = tested on: K-562 leukemia
# KM12 colon = tested on: KM12 colon
# LOX IMVI melanoma = tested on: LOX IMVI melanoma
# M14 melanoma = tested on: M14 melanoma
# MALME-3M melanoma = tested on: MALME-3M melanoma
# MCF7 breast = tested on: MCF7 breast
# MDA-MB-231 breast = tested on: MDA-MB-231 breast
# MDA-MB-435 = tested on: MDA-MB-435
# MOLT-4 leukemia = tested on: MOLT-4 leukemia
# NCI-H226 lung = tested on: NCI-H226 lung
# NCI-H23 lung = tested on: NCI-H23 lung
# NCI-H460 lung = tested on: NCI-H460 lung
# NCI-H522 lung = tested on: NCI-H522 lung
# NCI/ADR-RES ovarian = tested on: NCI/ADR-RES ovarian
# OVCAR-3 ovarian = tested on: OVCAR-3 ovarian
# OVCAR-4 ovarian = tested on: OVCAR-4 ovarian
# OVCAR-5 ovarian = tested on: OVCAR-5 ovarian
# OVCAR-8 ovarian = tested on: OVCAR-8 ovarian
# PC-3 prostate = tested on: PC-3 prostate
# RPMI-8226 leukemia = tested on: RPMI-8226 leukemia
# RXF 393 renal = tested on: RXF 393 renal
# SF-268 CNS = tested on: SF-268 CNS
# SF-295 CNS = tested on: SF-295 CNS
# SF-539 CNS = tested on: SF-539 CNS
# SK-MEL-2 melanoma = tested on: SK-MEL-2 melanoma
# SK-MEL-28 melanoma = tested on: SK-MEL-28 melanoma
# SK-MEL-5 melanoma = tested on: SK-MEL-5 melanoma
# SK-OV-3 ovarian = tested on: SK-OV-3 ovarian
# SN12C renal = tested on: SN12C renal
# SNB-19 CNS = tested on: SNB-19 CNS
# SNB-75 CNS = tested on: SNB-75 CNS
# SR leukemia = tested on: SR leukemia
# SW-620 colon = tested on: SW-620 colon
# TK-10 renal = tested on: TK-10 renal
# U251 CNS = tested on: U251 CNS
# UACC-257 melanoma = tested on: UACC-257 melanoma
# UACC-62 melanoma = tested on: UACC-62 melanoma
# UO-31 renal = tested on: UO-31 renal
smiles,measurement,setting,value
COc1c(O)cc2oc3cc(O)c(CC=C(C)C)c(O)c3c(=O)c2c1C/C=C(\C)CCC=C(C)C,GI50,786-0 renal,6.36 µM
same,TGI,786-0 renal,11.6 µM
same,GI50,A498 renal,5.96 µM
same,TGI,A498 renal,10.5 µM
same,GI50,A549 NSCLC,5.1 µM
same,TGI,A549 NSCLC,9.64 µM
same,GI50,ACHN renal,4.98 µM
same,TGI,ACHN renal,9.4 µM
same,GI50,CAKI-1 renal,4.69 µM
same,TGI,CAKI-1 renal,9.39 µM
same,GI50,CCRF-CEM leukemia,11.7 µM
same,TGI,CCRF-CEM leukemia,32.5 µM
same,GI50,COLO 205 colon,6.37 µM
same,TGI,COLO 205 colon,11.4 µM
same,GI50,DU-145 prostate,5.98 µM
same,TGI,DU-145 prostate,10.5 µM
same,GI50,EKVX NSCLC,4.89 µM
same,TGI,EKVX NSCLC,9.75 µM
same,GI50,HCC-2998 colon,7.06 µM
same,TGI,HCC-2998 colon,13.6 µM
same,GI50,HCT-116 colon,5.24 µM
same,TGI,HCT-116 colon,10.4 µM
same,GI50,HCT-15 colon,5.69 µM
same,TGI,HCT-15 colon,11.7 µM
same,GI50,HL-60(TB) leukemia,7.69 µM
same,TGI,HL-60(TB) leukemia,17.7 µM
same,GI50,HOP-62 NSCLC,5.66 µM
same,TGI,HOP-62 NSCLC,10.1 µM
same,GI50,HOP-92 NSCLC,6.52 µM
same,TGI,HOP-92 NSCLC,11.5 µM
same,GI50,HS 578T breast,7.11 µM
same,TGI,HS 578T breast,16.7 µM
same,GI50,HT29 colon,6.34 µM
same,TGI,HT29 colon,12.4 µM
same,GI50,IGROV1 ovarian,5.39 µM
same,TGI,IGROV1 ovarian,10.4 µM
same,GI50,K-562 leukemia,7.29 µM
same,TGI,K-562 leukemia,16.6 µM
same,GI50,KM12 colon,5.47 µM
same,TGI,KM12 colon,9.91 µM
same,GI50,LOX IMVI melanoma,5.49 µM
same,TGI,LOX IMVI melanoma,10.5 µM
same,GI50,M14 melanoma,6.17 µM
same,TGI,M14 melanoma,12.6 µM
same,GI50,MALME-3M melanoma,6.34 µM
same,TGI,MALME-3M melanoma,12 µM
same,GI50,MCF7 breast,6.15 µM
same,TGI,MCF7 breast,13.7 µM
same,GI50,MDA-MB-231 breast,5.61 µM
same,TGI,MDA-MB-231 breast,11.2 µM
same,GI50,MDA-MB-435,5.77 µM
same,TGI,MDA-MB-435,10.9 µM
same,GI50,MOLT-4 leukemia,6.11 µM
same,TGI,MOLT-4 leukemia,16.3 µM
same,GI50,NCI-H226 lung,6.18 µM
same,TGI,NCI-H226 lung,11.2 µM
same,GI50,NCI-H23 lung,6.6 µM
same,TGI,NCI-H23 lung,14.8 µM
same,GI50,NCI-H460 lung,5.66 µM
same,TGI,NCI-H460 lung,10.2 µM
same,GI50,NCI-H522 lung,5.92 µM
same,TGI,NCI-H522 lung,10.8 µM
same,GI50,NCI/ADR-RES ovarian,5.99 µM
same,TGI,NCI/ADR-RES ovarian,11.4 µM
same,GI50,OVCAR-3 ovarian,5.31 µM
same,TGI,OVCAR-3 ovarian,9.71 µM
same,GI50,OVCAR-4 ovarian,5.41 µM
same,TGI,OVCAR-4 ovarian,9.84 µM
same,GI50,OVCAR-5 ovarian,5.19 µM
same,TGI,OVCAR-5 ovarian,10.6 µM
same,GI50,OVCAR-8 ovarian,5.45 µM
same,TGI,OVCAR-8 ovarian,10.6 µM
same,GI50,PC-3 prostate,5.55 µM
same,TGI,PC-3 prostate,11.2 µM
same,GI50,RPMI-8226 leukemia,10.6 µM
same,TGI,RPMI-8226 leukemia,31.3 µM
same,GI50,RXF 393 renal,5.53 µM
same,TGI,RXF 393 renal,10.2 µM
same,GI50,SF-268 CNS,5.56 µM
same,TGI,SF-268 CNS,10 µM
same,GI50,SF-295 CNS,4.88 µM
same,TGI,SF-295 CNS,9.6 µM
same,GI50,SF-539 CNS,6.11 µM
same,TGI,SF-539 CNS,12 µM
same,GI50,SK-MEL-2 melanoma,6.46 µM
same,TGI,SK-MEL-2 melanoma,12.1 µM
same,GI50,SK-MEL-28 melanoma,5.4 µM
same,TGI,SK-MEL-28 melanoma,10.3 µM
same,GI50,SK-MEL-5 melanoma,5.62 µM
same,TGI,SK-MEL-5 melanoma,10.2 µM
same,GI50,SK-OV-3 ovarian,5.86 µM
same,TGI,SK-OV-3 ovarian,10.4 µM
same,GI50,SN12C renal,5.68 µM
same,TGI,SN12C renal,10.9 µM
same,GI50,SNB-19 CNS,6.51 µM
same,TGI,SNB-19 CNS,12 µM
same,GI50,SNB-75 CNS,3.58 µM
same,TGI,SNB-75 CNS,7.46 µM
same,GI50,SR leukemia,5.45 µM
same,TGI,SR leukemia,13.2 µM
same,GI50,SW-620 colon,5.8 µM
same,TGI,SW-620 colon,10.4 µM
same,GI50,TK-10 renal,8.15 µM
same,TGI,TK-10 renal,15.5 µM
same,GI50,U251 CNS,5.89 µM
same,TGI,U251 CNS,10.6 µM
same,GI50,UACC-257 melanoma,5.63 µM
same,TGI,UACC-257 melanoma,10.5 µM
same,GI50,UACC-62 melanoma,5.51 µM
same,TGI,UACC-62 melanoma,11.3 µM
same,GI50,UO-31 renal,4.62 µM
same,TGI,UO-31 renal,8.97 µM
